US7795294B2, “Tetrahydro-2H-indazole pyrazole cannabinoid modulators” (Janssen Pharmaceutica N.V., priority 2006, dated 2010)
Read-outs that look alike come from different tables or passages of the source.

Key:
human CB1 receptor = molecular target: T1, human CB1 receptor (Homo sapiens, UniProt P21554); assay: Binding assay for CB1 agonists or inverse agonists, [3H]-CP-55,940 displacement on membranes of transfected SK-N-MC cells; conditions: for inhibition at 0.2 µM: read-out: Cannabinoid CB1 Receptor Binding percent inhibition
T1 construct: expressed in transfected cells; host or cells: SK-N-MC cells, stably transfected with pcDNA3 CB-1 (human); semi-purified membrane pellet
T1 sequence (P21554 whole entry): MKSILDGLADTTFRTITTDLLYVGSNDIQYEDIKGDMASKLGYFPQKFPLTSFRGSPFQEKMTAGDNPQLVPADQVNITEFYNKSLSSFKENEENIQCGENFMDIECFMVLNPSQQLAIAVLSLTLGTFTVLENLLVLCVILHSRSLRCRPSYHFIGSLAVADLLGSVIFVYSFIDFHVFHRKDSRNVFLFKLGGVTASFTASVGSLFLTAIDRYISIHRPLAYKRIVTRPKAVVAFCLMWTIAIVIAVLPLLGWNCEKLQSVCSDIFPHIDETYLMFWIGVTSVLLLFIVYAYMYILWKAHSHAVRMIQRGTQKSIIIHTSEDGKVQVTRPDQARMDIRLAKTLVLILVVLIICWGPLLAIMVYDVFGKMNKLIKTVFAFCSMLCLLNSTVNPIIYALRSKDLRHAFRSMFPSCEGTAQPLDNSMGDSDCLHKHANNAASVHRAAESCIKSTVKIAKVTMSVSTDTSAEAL
Procedure: (§1) The human CB1 and CB2 receptors were stably expressed in SK-N-MC cells transfected with pcDNA3 CB-1 (human) or pcDNA3 CB-2 (human). The cells were grown in T-180 cell culture flasks under standard cell culture conditions at 37° C. in a 5% CO2 atmosphere. The cells were harvested by trysinization and homogenized in a homogenization buffer (10 mM Tris, 0.2 mM MgCl2, 5 mM KCl, with protease inhibitors aprotinin, leupeptin, pepstatin A and bacitracin) and centrifuged (2000 g). The supernatant was then centrifuged in 2M sucrose (31,300 g) to produce a semi-purified membrane pellet. The pellet was resuspended in homogenization and stored at −80° C.
(§2) On the day of the assay, the pellet was thawed on ice and diluted in assay buffer (50 mM Tris-HCl, 5 mM MgCl2, 2.5 mM EDTA, 0.5 mg/mL fatty acid free bovine serum albumin, pH 7.5). […] The plate was covered and incubated for 90 minutes at 30° C. The contents were then aspirated onto a Packard Unifilter GF/C filter bottom plate prewet with 0.5% polyethyleneimine. The wells of the polypropylene plate were rinsed and aspirated seven times with a 0.9% saline-0.5% Tween 20 solution. The Unifilter plate was dried, a scintillation cocktail was added to each well and the counts representing binding were quantitated in a TopCount scintillation counter.
(§3) For compounds tested, an IC50 binding value was obtained from percent inhibition studies in which various test concentrations were used. The binding value was calculated by linear regression. An average value is shown for those compounds where two or more IC50 values were obtained.
(§4) An average value is shown for those compounds where two or more percent inhibition values were obtained.

human CB2 receptor = molecular target: T2, human CB2 receptor (Homo sapiens, UniProt P34972); assay: Binding assay for CB2 agonists or inverse agonists, [3H]-CP-55,940 displacement on membranes of transfected SK-N-MC cells
T2 construct: expressed in transfected cells; host or cells: SK-N-MC cells, stably transfected with pcDNA3 CB-2 (human); semi-purified membrane pellet
T2 sequence (P34972 whole entry): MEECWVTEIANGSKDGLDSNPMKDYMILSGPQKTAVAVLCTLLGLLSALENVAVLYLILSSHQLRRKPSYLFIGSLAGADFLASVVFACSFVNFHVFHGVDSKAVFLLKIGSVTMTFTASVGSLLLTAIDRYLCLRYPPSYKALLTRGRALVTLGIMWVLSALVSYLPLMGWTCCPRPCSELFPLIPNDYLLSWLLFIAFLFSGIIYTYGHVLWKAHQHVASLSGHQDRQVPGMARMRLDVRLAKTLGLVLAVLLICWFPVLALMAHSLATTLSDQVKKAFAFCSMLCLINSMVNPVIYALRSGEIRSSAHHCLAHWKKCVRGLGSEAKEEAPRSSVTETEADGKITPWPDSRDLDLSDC
Procedure: as §1, §2, §3, §4

[1] = read-out: Cannabinoid CB2 Receptor Binding percent inhibition

| SMILES | IC50 (human CB1 receptor) [nM] | inhibition at 0.2 µM (human CB2 receptor; [1]) [%] | also measured |
| --- | --- | --- | --- |
| C[C@@H](NC(=O)C1CCCc2c1nn(-c1ccc(Cl)cc1Cl)c2-c1ccc(Br)cc1)C1CCCCC1 (stereo partly drawn) [Cpd 44, 3-(4-bromo-phenyl)-2-(2,4-dichloro-phenyl)-4,5,6,7-tetrahydro-2H-indazole-7-carboxylic acid [(1R)-1-cyclohexyl-ethyl]-amide] | 2 | 21 |  |
| Cc1ccc(-c2c3c(nn2Cc2ccccc2)C(C(=O)NC(C)C24CC5CC(CC(C5)C2)C4)CCC3)cc1 (stereo not drawn) [Cpd 7, 2-benzyl-3-p-tolyl-4,5,6,7-tetrahydro-2H-indazole-7-carboxylic acid (1-adamantan-1-yl-ethyl)-amide] | 370 |  | IC50 (human CB2 receptor): 800 nM |
| COc1ccc(-c2c3c(nn2-c2ccc(Cl)cc2Cl)C(C(=O)NN2CC4CCCC4C2)CCC3)cc1 (stereo not drawn) [Cpd 28, 2-(2,4-dichloro-phenyl)-3-(4-methoxy-phenyl)-4,5,6,7-tetrahydro-2H-indazole-7-carboxylic acid (hexahydro-cyclopenta[c]pyrrol-2-yl)-amide] |  | 23 | inhibition at 0.2 µM (human CB1 receptor): 59% |
| C[C@@H](NC(=O)[C@H]1CCCc2c1nn(-c1ccc(Cl)cc1Cl)c2-c1ccc(F)cc1)c1ccccc1 [Cpd 37, (7S)-2-(2,4-dichloro-phenyl)-3-(4-fluoro-phenyl)-4,5,6,7-tetrahydro-2H-indazole-7-carboxylic acid [(1R)-1-phenyl-ethyl]-amide] |  | 4 | inhibition at 0.2 µM (human CB1 receptor): 50% |
| CN(NC(=O)C1CCCc2c1nn(-c1ccc(Cl)cc1Cl)c2-c1ccc(Cl)cc1)c1ccccc1 (stereo not drawn) [Cpd 35, 3-(4-chloro-phenyl)-2-(2,4-dichloro-phenyl)-4,5,6,7-tetrahydro-2H-indazole-7-carboxylic acid N′-methyl-N′-phenyl-hydrazide] | 2 | 3 |  |
| C[C@@H](NC(=O)[C@@H]1CCCc2c1nn(-c1ccc(Cl)cc1Cl)c2-c1ccc(Br)s1)c1ccccc1 [Cpd 53, (7R)-3-(5-bromo-thiophen-2-yl)-2-(2,4-dichloro-phenyl)-4,5,6,7-tetrahydro-2H-indazole-7-carboxylic acid [(1R)-1-phenyl-ethyl]-amide] | 4 | 36 |  |
| COc1ccc(-c2c3c(nn2-c2ccc(Cl)cc2Cl)C(C(=O)N[C@H](C)c2ccccn2)CCC3)cc1 (stereo partly drawn) [Cpd 27, 2-(2,4-dichloro-phenyl)-3-(4-methoxy-phenyl)-4,5,6,7-tetrahydro-2H-indazole-7-carboxylic acid [(1R)-1-pyridin-2-yl-ethyl]-amide] | 31 |  |  |
| O=C(NN1CCCCC1)[C@@H]1CCCc2c1nn(-c1ccc(Cl)cc1Cl)c2-c1ccc(Br)cc1 [Cpd 51, (7R)-3-(4-bromo-phenyl)-2-(2,4-dichloro-phenyl)-4,5,6,7-tetrahydro-2H-indazole-7-carboxylic acid piperidin-1-ylamide] | 14 | 27 |  |
| CCOC(=O)[C@H]1C2CCC(C2)[C@@H]1NC(=O)C1CCCc2c1nn(-c1ccc(OC)cc1)c2-c1ccc(C)cc1 (stereo partly drawn) [Cpd 3, (2S,3S)-3-{[2-(4-methoxy-phenyl)-3-p-tolyl-4,5,6,7-tetrahydro-2H-indazole-7-carbonyl]-amino}-bicyclo[2.2.1]heptane-2-carboxylic acid ethyl ester] | 60 |  | IC50 (human CB2 receptor; radioligand CP-55,940 0.2 nM, average where two or more values, read-out: Cannabinoid CB2 Receptor Binding IC50): 370 nM |
| C[C@@H](NC(=O)[C@H]1CCCc2c1nn(-c1ccc(Cl)cc1Cl)c2-c1ccc(Br)s1)C1CCCCC1 [Cpd 54, (7S)-3-(5-bromo-thiophen-2-yl)-2-(2,4-dichloro-phenyl)-4,5,6,7-tetrahydro-2H-indazole-7-carboxylic acid [(1R)-1-cyclohexyl-ethyl]-amide] |  | 12 | inhibition at 0.2 µM (human CB1 receptor): 35% |
| COC[C@H]1CCCN1NC(=O)C1CCCc2c1nn(-c1ccc(Cl)cc1Cl)c2-c1ccc(OC)cc1 (stereo partly drawn) [Cpd 32, 2-(2,4-dichloro-phenyl)-3-(4-methoxy-phenyl)-4,5,6,7-tetrahydro-2H-indazole-7-carboxylic acid [(2R)-2-methoxymethyl-pyrrolidin-1-yl]-amide] |  | 6 | inhibition at 0.2 µM (human CB1 receptor): 46% |
| O=C(NN1CCCCC1)C1CCCc2c1nn(-c1ccc(Cl)cc1Cl)c2-c1ccc(Cl)cc1 (stereo not drawn) [Cpd 33, 3-(4-chloro-phenyl)-2-(2,4-dichloro-phenyl)-4,5,6,7-tetrahydro-2H-indazole-7-carboxylic acid piperidin-1-ylamide] | 39 | 0 |  |
| COc1ccc(-c2c3c(nn2-c2ccc(Cl)cc2Cl)C(C(=O)N[C@H](C)c2ccccc2)CCC3)cc1 (stereo partly drawn) [Cpd 23, 2-(2,4-dichloro-phenyl)-3-(4-methoxy-phenyl)-4,5,6,7-tetrahydro-2H-indazole-7-carboxylic acid [(1R)-1-phenyl-ethyl]-amide] | 8 | 28 |  |
| C[C@@H](NC(=O)[C@H]1CCCc2c1nn(-c1ccc(Cl)cc1Cl)c2-c1ccc(Br)s1)c1ccccc1 [Cpd 52, (7S)-3-(5-bromo-thiophen-2-yl)-2-(2,4-dichloro-phenyl)-4,5,6,7-tetrahydro-2H-indazole-7-carboxylic acid [(1R)-1-phenyl-ethyl]-amide] |  | 20 | inhibition at 0.2 µM (human CB1 receptor): 44% |
| C[C@@H](NC(=O)C1CCCc2c1nn(-c1ccc(Cl)cc1Cl)c2-c1ccc(Cl)s1)C1CCCCC1 (stereo partly drawn) [Cpd 47, 3-(5-chloro-thiophen-2-yl)-2-(2,4-dichloro-phenyl)-4,5,6,7-tetrahydro-2H-indazole-7-carboxylic acid [(1R)-1-cyclohexyl-ethyl]-amide] | 4 | 5 |  |
| COc1ccc(-n2nc3c(c2-c2ccc(C)cc2)CCCC3C(=O)N[C@@H]2C3CCC(C3)[C@@H]2CO)cc1 (stereo partly drawn) [Cpd 17, 2-(4-methoxy-phenyl)-3-p-tolyl-4,5,6,7-tetrahydro-2H-indazole-7-carboxylic acid [(2R,3S)-3-hydroxymethyl-bicyclo[2.2.1]hept-2-yl]-amide] | 1800 |  | IC50 (human CB2 receptor): 1570 nM |
| O=C(N[C@H](CO)c1ccccc1)[C@@H]1CCCc2c1nn(-c1ccc(Cl)cc1Cl)c2-c1ccc(Br)s1 [Cpd 57, (7R)-3-(5-bromo-thiophen-2-yl)-2-(2,4-dichloro-phenyl)-4,5,6,7-tetrahydro-2H-indazole-7-carboxylic acid [(1S)-2-hydroxy-1-phenyl-ethyl]-amide] | 300 |  | IC50 (human CB2 receptor): 300 nM |
| C[C@@H](NC(=O)C1CCCc2c1nn(-c1ccc(Cl)cc1Cl)c2-c1ccc(F)cc1)C1CCCCC1 (stereo partly drawn) [Cpd 36, 2-(2,4-dichloro-phenyl)-3-(4-fluoro-phenyl)-4,5,6,7-tetrahydro-2H-indazole-7-carboxylic acid [(1R)-1-cyclohexyl-ethyl]-amide] | 2 | 0 |  |
| COc1ccc(-n2nc3c(c2-c2ccc(C)cc2)CCCC3C(=O)N[C@H]2C3(C)CCC(C3)C2(C)C)cc1 (stereo partly drawn) [Cpd 16, 2-(4-methoxy-phenyl)-3-p-tolyl-4,5,6,7-tetrahydro-2H-indazole-7-carboxylic acid [(2S)-1,3,3-trimethyl-bicyclo[2.2.1]hept-2-yl]-amide] |  |  | IC50 (human CB1 receptor; radioligand CP-55,940 0.2 nM, average where two or more values, read-out: Cannabinoid CB1 Receptor Binding IC50): 180 nM; inhibition at 25 µM (human CB2 receptor; [1]): 66% |
| C[C@@H](NC(=O)C1CCCc2c1nn(-c1ccc(Cl)cc1Cl)c2-c1ccc(Cl)cc1)C1CCCCC1 (stereo partly drawn) [Cpd 29, 3-(4-chloro-phenyl)-2-(2,4-dichloro-phenyl)-4,5,6,7-tetrahydro-2H-indazole-7-carboxylic acid [(1R)-1-cyclohexyl-ethyl]-amide] | 1 | 7 |  |
